Measurements published in ChEMBL document CHEMBL2385075, “Anti-inflammatory and antinociceptive activity of epiisopiloturine, an imidazole alkaloid isolated from Pilocarpus microphyllus” (J Nat Prod, 2013).
Activity calls are given as the source filed them. The calls are words filed in the database; no cut-off is given here.

Experiments:
Mus musculus [1] = assay: Neurotoxicity in Swiss mouse assessed as motor impairment at 5 mg/kg, ip administered 60 mins measured for 1 min by rotarod test; format: toxicity, organism-based; set-up: dose 5 mg/kg, route intraperitoneal; conditions: in vivo
Mus musculus [2] = assay: Antiinflammatory activity in Swiss mouse assessed as inhibition of carrageenan-induced total leukocytes migration into peritoneal cavity at 1 mg/kg, ip administered 30 mins prior to carrageenan challenge measured after 4 hrs relative to carrageenan-treated control; format: functional; conditions: route intraperitoneal
Mus musculus [3] = assay: Antiinflammatory activity in Swiss mouse assessed as inhibition of carrageenan-induced paw edema at 0.3 mg/kg, ip measured at 4 hrs by plethysmometric analysis relative to untreated control; format: functional; conditions: route intraperitoneal
Mus musculus [4] = assay: Antiinflammatory activity in Swiss mouse assessed as inhibition of dextran sulfate-induced paw edema at 1 mg/kg, ip administered 30 mins prior to dextran sulfate challenge measured after 4 hrs relative to untreated control; format: functional; conditions: route intraperitoneal
Mus musculus [5] = assay: Antiinflammatory activity in Swiss mouse assessed as inhibition of carrageenan-induced paw edema at 0.3 mg/kg, ip measured at 2 hrs by plethysmometric analysis relative to untreated control; format: functional; conditions: route intraperitoneal
Mus musculus [6] = assay: Antiinflammatory activity in Swiss mouse assessed as inhibition of carrageenan-induced paw edema at 1 mg/kg, ip measured at 2 hrs by plethysmometric analysis relative to untreated control; format: functional; conditions: route intraperitoneal
Mus musculus [7] = assay: Antinociceptive activity in Swiss mouse assessed as inhibition of formalin-induced paw licking at 1 mg/kg, ip administered 30 mins prior to formalin challenge measured during neurogenic phase for 1 to 5 mins; format: functional; conditions: route intraperitoneal
Mus musculus [8] = assay: Antiinflammatory activity in Swiss mouse assessed as reduction of carrageenan-induced paw myeloperoxidase activity measured per mg of tissue at 1 mg/kg, ip administered 30 mins prior to carrageenan challenge measured after 4 hrs (reference value: 10.9 +/- 1.2 U); format: functional; conditions: route intraperitoneal
Mus musculus [9] = assay: Antinociceptive activity in Swiss mouse assessed as increase in latency time at 1 mg/kg, ip administered 30 mins prior to testing measured after 30 to 120 mins by hot plate test; format: functional, organism-based; set-up: dose 1 mg/kg
Mus musculus [10] = assay: Antiinflammatory activity in Swiss mouse assessed as inhibition of carrageenan-induced paw edema at 0.1 mg/kg, ip measured at 1 hr by plethysmometric analysis relative to untreated control; format: functional; conditions: route intraperitoneal
Mus musculus [11] = assay: Antiinflammatory activity in Swiss mouse assessed as inhibition of bradykinin-induced paw edema at 1 mg/kg, ip administered 30 mins prior to bradykinin challenge measured after 60 mins in presence of captopril relative to untreated control; format: functional; conditions: route intraperitoneal
Mus musculus [12] = assay: Antiinflammatory activity in Swiss mouse assessed as inhibition of carrageenan-induced paw edema at 0.1 mg/kg, ip measured at 3 hrs by plethysmometric analysis relative to untreated control; format: functional; conditions: route intraperitoneal
Mus musculus [13] = assay: Antiinflammatory activity in Swiss mouse assessed as inhibition of carrageenan-induced paw edema at 1 mg/kg, ip measured at 1 hr by plethysmometric analysis relative to untreated control; format: functional; conditions: route intraperitoneal
Mus musculus [14] = assay: Antiinflammatory activity in Swiss mouse assessed as inhibition of carrageenan-induced paw edema at 0.1 mg/kg, ip measured at 2 hrs by plethysmometric analysis relative to untreated control; format: functional; conditions: route intraperitoneal
Mus musculus [15] = assay: Antiinflammatory activity in Swiss mouse assessed as reduction of carrageenan-induced TNFalpha level into peritoneal fluid at 1 mg/kg, ip administered 1 hr prior to carrageenan challenge measured after 4 hrs by sandwich ELISA; format: functional, organism-based; set-up: dose 1 mg/kg
Mus musculus [16] = assay: Antiinflammatory activity in Swiss mouse assessed as inhibition of carrageenan-induced paw edema at 1 mg/kg, ip measured at 3 hrs by plethysmometric analysis relative to untreated control; format: functional; conditions: route intraperitoneal
Mus musculus [17] = assay: Antiinflammatory activity in Swiss mouse assessed as inhibition of serotonin-induced paw edema at 1 mg/kg, ip administered 30 mins prior to serotonin challenge measured after 4 hrs relative to untreated control; format: functional; conditions: route intraperitoneal
Mus musculus [18] = assay: Antiinflammatory activity in Swiss mouse assessed as inhibition of histamine-induced paw edema at 1 mg/kg, ip administered 30 mins prior to histamine challenge measured after 60 mins relative to untreated control; format: functional, organism-based; set-up: dose 1 mg/kg
Mus musculus [19] = assay: Antinociceptive activity in Swiss mouse assessed as inhibition of formalin-induced paw licking at 1 mg/kg, ip administered 30 mins prior to formalin challenge measured during inflammatory phase for 20 to 25 mins; format: functional; conditions: route intraperitoneal
Mus musculus [20] = assay: Antinociceptive activity in Swiss mouse assessed as inhibition of formalin-induced paw licking at 1 mg/kg, ip administered 30 mins prior to formalin challenge measured during neurogenic phase for 1 to 5 mins in presence of opioid receptor antagonist naloxone; format: functional, organism-based; set-up: dose 1 mg/kg
Mus musculus [21] = assay: Antiinflammatory activity in Swiss mouse assessed as inhibition of carrageenan-induced paw edema at 0.3 mg/kg, ip measured at 1 hr by plethysmometric analysis relative to untreated control; format: functional; conditions: route intraperitoneal
Mus musculus [22] = assay: Antiinflammatory activity in Swiss mouse assessed as inhibition of carrageenan-induced paw edema at 0.1 mg/kg, ip measured at 4 hrs by plethysmometric analysis relative to untreated control; format: functional; conditions: route intraperitoneal
Mus musculus [23] = assay: Antiinflammatory activity in Swiss mouse assessed as inhibition of carrageenan-induced paw edema at 1 mg/kg, ip measured at 4 hrs by plethysmometric analysis relative to untreated control; format: functional; conditions: route intraperitoneal
Mus musculus [24] = assay: Antiinflammatory activity in Swiss mouse assessed as inhibition of carrageenan-induced paw edema at 0.3 mg/kg, ip measured at 3 hrs by plethysmometric analysis relative to untreated control; format: functional; conditions: route intraperitoneal
Mus musculus [25] = assay: Antiinflammatory activity in Swiss mouse assessed as inhibition of carrageenan-induced neutrophil migration into peritoneal cavity at 1 mg/kg, ip administered 30 mins prior to carrageenan challenge measured after 4 hrs relative to carrageenan-treated control; format: functional; conditions: route intraperitoneal
Mus musculus [26] = assay: Antiinflammatory activity in Swiss mouse assessed as reduction of carrageenan-induced IL-1beta level into peritoneal fluid at 1 mg/kg, ip administered 1 hr prior to carrageenan challenge measured after 4 hrs by sandwich ELISA; format: functional, organism-based; set-up: dose 1 mg/kg
Mus musculus [27] = assay: Neurotoxicity in Swiss mouse assessed as motor impairment at 1 to 10 mg/kg, ip administered 60 mins measured for 1 min by rotarod test; format: toxicity, organism-based; set-up: dose 1-10 mg/kg, route intraperitoneal; conditions: in vivo
Mus musculus [28] = assay: Antinociceptive activity in Swiss mouse assessed as inhibition of acetic acid-induced abdominal writhing response at 1 mg/kg, ip administered 30 mins prior to acetic acid challenge measured for 10 to 20 mins; format: functional; conditions: Abdomen, route intraperitoneal
Mus musculus [29] = assay: Antiinflammatory activity in Swiss mouse assessed as reduction of carrageenan-induced paw myeloperoxidase activity measured per mg of tissue at 10 mg/kg, ip administered 30 mins prior to carrageenan challenge measured after 4 hrs (reference value: 10.9 +/- 1.2 U); format: functional; conditions: route intraperitoneal
Mus musculus [30] = assay: Antiinflammatory activity in Swiss mouse assessed as inhibition of serotonin-induced paw edema at 10 mg/kg, ip administered 30 mins prior to serotonin challenge measured after 4 hrs relative to untreated control; format: functional, organism-based; set-up: dose 10 mg/kg
Mus musculus [31] = assay: Antiinflammatory activity in Swiss mouse assessed as inhibition of carrageenan-induced paw edema at 10 mg/kg, ip measured at 3 hrs by plethysmometric analysis relative to untreated control; format: functional; conditions: route intraperitoneal
Mus musculus [32] = assay: Antiinflammatory activity in Swiss mouse assessed as inhibition of carrageenan-induced total leukocytes migration into peritoneal cavity at 10 mg/kg, ip administered 30 mins prior to carrageenan challenge measured after 4 hrs relative to carrageenan-treated control; format: functional; conditions: route intraperitoneal
Mus musculus [33] = assay: Antiinflammatory activity in Swiss mouse assessed as inhibition of dextran sulfate-induced paw edema at 10 mg/kg, ip administered 30 mins prior to dextran sulfate challenge measured after 4 hrs relative to untreated control; format: functional, organism-based; set-up: dose 10 mg/kg
Mus musculus [34] = assay: Antiinflammatory activity in Swiss mouse assessed as inhibition of carrageenan-induced neutrophil migration into peritoneal cavity at 10 mg/kg, ip administered 30 mins prior to carrageenan challenge measured after 4 hrs relative to carrageenan-treated control; format: functional; conditions: route intraperitoneal
Mus musculus [35] = assay: Antiinflammatory activity in Swiss mouse assessed as inhibition of carrageenan-induced paw edema at 10 mg/kg, ip measured at 1 hr by plethysmometric analysis relative to untreated control; format: functional; conditions: route intraperitoneal
Mus musculus [36] = assay: Antiinflammatory activity in Swiss mouse assessed as inhibition of carrageenan-induced paw edema at 10 mg/kg, ip measured at 2 hrs by plethysmometric analysis relative to untreated control; format: functional; conditions: route intraperitoneal
Mus musculus [37] = assay: Antiinflammatory activity in Swiss mouse assessed as inhibition of histamine-induced paw edema at 10 mg/kg, ip administered 30 mins prior to histamine challenge measured after 60 mins relative to untreated control; format: functional, organism-based; set-up: dose 10 mg/kg
Mus musculus [38] = assay: Antiinflammatory activity in Swiss mouse assessed as inhibition of bradykinin-induced paw edema at 10 mg/kg, ip administered 30 mins prior to bradykinin challenge measured after 60 mins in presence of captopril relative to untreated control; format: functional, organism-based; set-up: dose 10 mg/kg
Mus musculus [39] = assay: Antiinflammatory activity in Swiss mouse assessed as inhibition of carrageenan-induced paw edema at 10 mg/kg, ip measured at 4 hrs by plethysmometric analysis relative to untreated control; format: functional; conditions: route intraperitoneal
Mus musculus [40] = species: Mus musculus; assay: animal or person; conditions: Swiss, Abdomen, ip, read-out: INH
Description: Antinociceptive activity in Swiss mouse assessed as inhibition of acetic acid-induced abdominal writhing response at 5 mg/kg, ip administered 30 mins prior to acetic acid challenge measured for 10 to 20 mins

Mus musculus [41] = species: Mus musculus; assay: animal or person; conditions: Swiss, sc, read-out: INH
Description: Antinociceptive activity in Swiss mouse assessed as inhibition of formalin-induced paw licking at 5 mg/kg, sc administered 30 mins prior to formalin challenge measured during neurogenic phase for 1 to 5 mins

Mus musculus [42] = assay: Antinociceptive activity in Swiss mouse assessed as increase in latency time at 5 mg/kg, sc administered 30 mins prior to testing measured after 30 to 120 mins by hot plate test; format: functional, organism-based; set-up: dose 5 mg/kg
Mus musculus [43] = species: Mus musculus; assay: animal or person; conditions: Swiss, sc, read-out: INH; remark: listed apart in the source
Description: Antinociceptive activity in Swiss mouse assessed as inhibition of formalin-induced paw licking at 5 mg/kg, sc administered 30 mins prior to formalin challenge measured during inflammatory phase for 20 to 25 mins

## CN1C(=O)CN=C(c2ccccc2)c2cc(Cl)ccc21 [DIAZEPAM]
Mus musculus [1]
  Activity: Toxic

## Cn1cnc(C[C@H]2COC(=O)[C@@H]2[C@H](O)c2ccccc2)c1 [EPIISOPILOTURINE]
Mus musculus [2]
  inhibition in vivo at 1 mg/kg: 55.2%
Mus musculus [3]
  inhibition in vivo at 0.3 mg/kg: 67.6%
Mus musculus [4]
  inhibition in vivo at 1 mg/kg: 54.1%
Mus musculus [5]
  inhibition in vivo at 0.3 mg/kg: 71.3%
Mus musculus [6]
  inhibition in vivo at 1 mg/kg: 79.5%
Mus musculus [7]
  inhibition in vivo at 1 mg/kg: 58.2%
Mus musculus [8]
  Activity: 3.8 U
Mus musculus [9]
  Activity: inactive
Mus musculus [10]
  inhibition in vivo at 0.1 mg/kg: 36%
Mus musculus [11]
  inhibition in vivo at 1 mg/kg: 76.9%
Mus musculus [12]
  inhibition in vivo at 0.1 mg/kg: 55%
Mus musculus [13]
  inhibition in vivo at 1 mg/kg: 65%
Mus musculus [14]
  inhibition in vivo at 0.1 mg/kg: 46.8%
Mus musculus [15]
  Activity: Active
Mus musculus [16]
  inhibition in vivo at 1 mg/kg: 85%
Mus musculus [17]
  inhibition in vivo at 1 mg/kg: 46.7%
Mus musculus [18]
  inhibition: inactive
Mus musculus [19]
  inhibition in vivo at 1 mg/kg: 89.2%
Mus musculus [20]
  Activity: inactive
Mus musculus [21]
  inhibition in vivo at 0.3 mg/kg: 48%
Mus musculus [22]
  inhibition in vivo at 0.1 mg/kg: 49.7%
Mus musculus [23]
  inhibition in vivo at 1 mg/kg: 73%
Mus musculus [24]
  inhibition in vivo at 0.3 mg/kg: 70%
Mus musculus [25]
  inhibition in vivo at 1 mg/kg: 73.8%
Mus musculus [26]
  Activity: Active
Mus musculus [27]
  Activity: Non-toxic
Mus musculus [28]
  inhibition in vivo at 1 mg/kg: 66.4%

## COc1ccc2c(c1)c(CC(=O)O)c(C)n2C(=O)c1ccc(Cl)cc1 [INDOMETHACIN]
Mus musculus [29]
  Activity: 3.1 U
Mus musculus [30]
  inhibition: Active
Mus musculus [31]
  inhibition in vivo at 10 mg/kg: 43.7%
Mus musculus [32]
  inhibition in vivo at 10 mg/kg: 60.2%
Mus musculus [33]
  inhibition: Active
Mus musculus [34]
  inhibition in vivo at 10 mg/kg: 79.6%
Mus musculus [35]
  inhibition in vivo at 10 mg/kg: 55%
Mus musculus [36]
  inhibition in vivo at 10 mg/kg: 50.9%
Mus musculus [37]
  inhibition: Active
Mus musculus [38]
  inhibition: Active
Mus musculus [39]
  inhibition in vivo at 10 mg/kg: 37%

## CN1CC[C@]23c4c5ccc(O)c4O[C@H]2[C@@H](O)C=C[C@H]3[C@H]1C5 [MORPHINE]
Mus musculus [40]
  inhibition in vivo at 5 mg/kg: 98.3%
Mus musculus [41]
  inhibition in vivo at 5 mg/kg: 94%
Mus musculus [42]
  Activity: Active
Mus musculus [43]
  inhibition in vivo at 5 mg/kg: 97.2%
